SMILES strings stand for the structures.

What all share (assay type): cell-based
In one test the test system is Bacillus Cereus. As to the kind of experiment: agar plate disc-diffusion, inhibition zone. The conditions noted are these: Gram positive; for zone of inhibition at 10000 ppm: A = concentration of comp. = 10,000 ppm; for zone of inhibition at 30000 ppm: B = concentration of comp. = 30000 ppm; for zone of inhibition at 50000 ppm: C = concentration of comp. = 50,000 ppm. On the procedure: (§1) The antimicrobial properties of the synthesized compound was studied by the method of agar plate disc-diffusion. Sterilized filter papers (6 mm in diameter) were wetted with 10 μL of a solution of 1-cyclopropyl-6-fluoro-4-oxo-7-(4-((2-thioxobenzo[d]thiazol-3(2H)-yl)methyl)piperazin-1-yl)-1,4-dihydroquinoline-3-carboxylic acid (4) to be tested, containing 10 mg/mL in DMSO and the discs were allowed to air dry. The discs were then placed onto the surface of agar plates (nutrient agar for bacteria) seeded with the test organism. Each plate contained 15 mL of the agar medium, previously seeded with 0.2 mL of the broth culture of each organism pregrown for 18 h. The inhibition zones were measured in […]. Discs impregnated with DMSO were used as a control, and its inhibition zone was subtracted from the tested compound actual inhibition zone.

The subject of a further test is Escherichia coli. The experiment in a line: agar plate disc-diffusion, inhibition zone. The conditions noted are these: Gram negative; for zone of inhibition at 10000 ppm: A = concentration of comp. = 10,000 ppm; for zone of inhibition at 30000 ppm: B = concentration of comp. = 30000 ppm; for zone of inhibition at 50000 ppm: C = concentration of comp. = 50,000 ppm. As to the method: as §1
Background: In agar diffusion tests the substance spreads into inoculated agar from a disc or well.

In the next test the test system is Pseudomonas aeruginosa. The experiment in a line: agar plate disc-diffusion, inhibition zone. To be noted: Gram negative; for zone of inhibition at 10000 ppm: A = concentration of comp. = 10,000 ppm; for zone of inhibition at 30000 ppm: B = concentration of comp. = 30000 ppm; for zone of inhibition at 50000 ppm: C = concentration of comp. = 50,000 ppm. On the procedure: as §1

The next test concerns Staphylococcus aureus. As to the kind of experiment: agar plate disc-diffusion, inhibition zone. The conditions noted are these: Gram positive; for zone of inhibition at 10000 ppm: A = concentration of comp. = 10,000 ppm; for zone of inhibition at 30000 ppm: B = concentration of comp. = 30000 ppm; for zone of inhibition at 50000 ppm: C = concentration of comp. = 50,000 ppm. On the procedure: as §1

In test [1] the test system is gram positive and gram-negative bacterial strains. As to the kind of experiment: antibacterial activity screen, overall statement. The conditions noted are these: Bacillus cereus, Staphylococcus aureus, Pseudomonas aeruginosa and Escherichia coli. On the procedure: as §1

Broadly, the zone of inhibition is the size of the clear area around the sample on an inoculated plate. High values mean wide suppression of growth, low ones little suppression of growth. As to `O=C(O)c1cn(C2CC2)c2cc(N3CCN(Cn4c(=S)sc5ccccc54)CC3)c(F)cc2c1=O` [Compound 4, 1-cyclopropyl-6-fluoro-4-oxo-7-(4-((2-thioxobenzo[d]thiazol-3(2H)-yl)methyl)piperazin-1-yl)-1,4-dihydroquinoline-3-carboxylic acid], the zone of inhibition at 10000 ppm came to 35 mm in the test with Bacillus Cereus, 39 mm in the test with Escherichia coli, 24 mm in the test with Pseudomonas aeruginosa and 10 mm in the test with Staphylococcus aureus. Further, the zone of inhibition at 30000 ppm in the test on Bacillus Cereus worked out at 39 mm; in the test with Escherichia coli, 44 mm; in the test on Pseudomonas aeruginosa, 31 mm; with Staphylococcus aureus, 17 mm. The zone of inhibition at 50000 ppm with Bacillus Cereus worked out at 44 mm; with Escherichia coli it was 49 mm; in the test with Pseudomonas aeruginosa, 39 mm; with Staphylococcus aureus it was 22 mm. Also, the “antibacterial activities (in words)” value in test [1] was “good antibacterial activities”.

On to `O=C(O)c1cn(C2CC2)c2cc(N3CCNCC3)c(F)cc2c1=O` [Cip., ciprofloxacin, reference compound], for which the zone of inhibition at 10000 ppm stood at 29 mm in the test with Bacillus Cereus, 30 mm in the test with Escherichia coli, 29 mm with Pseudomonas aeruginosa and 43 mm in the test with Staphylococcus aureus. Also, the zone of inhibition at 30000 ppm with Bacillus Cereus was 30 mm; in the test on Escherichia coli it was 39 mm; in the test with Pseudomonas aeruginosa it was 30 mm; in the test with Staphylococcus aureus, 44 mm. Moreover, the zone of inhibition at 50000 ppm is 42 mm with Bacillus Cereus, 60 mm in the test on Escherichia coli, 53 mm in the test with Pseudomonas aeruginosa and 53 mm with Staphylococcus aureus.
